PubChem BioAssay (NCI)
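Results reflect a 48-hour exposure of cells in 96-well plates to compound at five concentrations. GI50 = concentration required for 50% inhibition of growth. TGI denotes the concentration required for complete inhibition of growth.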

Experiments:
Assay in all cases: NCI anticancer screen, dose series, 48 h
NCI/ADR-RES ovarian = tested on: NCI/ADR-RES ovarian
OVCAR-8 ovarian = tested on: OVCAR-8 ovarian
UACC-257 melanoma = tested on: UACC-257 melanoma
HCT-15 colon = tested on: HCT-15 colon
LOX IMVI melanoma = tested on: LOX IMVI melanoma
PC-3 prostate = tested on: PC-3 prostate
SF-539 CNS = tested on: SF-539 CNS
SNB-75 CNS = tested on: SNB-75 CNS
IGROV1 ovarian = tested on: IGROV1 ovarian

Question: With COC1/C=C/C(C)C(C(C)C(OC)C(C)CCC(=O)C(C)C(C/C=C/N(C)C=O)OC)OC(=O)/C=C/C=C(\C)CC(OC)C(OC)C2=CC(=O)O[C@@H](C(C)C(OC)CC(OC)/C=C/C(C)C(O)C1)[C@H]2O (stereo partly drawn) as the molecule, how does the TGI (NCI/ADR-RES ovarian) read?
Answer: 0.766 µM

Question: What about the TGI (OVCAR-8 ovarian) of the same molecule?
Answer: 0.829 µM

Question: What about the TGI (UACC-257 melanoma) of the same molecule?
Answer: 0.338 µM

Question: What about the TGI (HCT-15 colon) of the same molecule?
Answer: 0.329 µM

Question: And the TGI (LOX IMVI melanoma)?
Answer: 0.0755 µM

Question: What about the TGI (PC-3 prostate) of the same molecule?
Answer: 0.35 µM

Question: What about the TGI (SF-539 CNS) of the same molecule?
Answer: 0.381 µM

Question: How did the TGI (NCI/ADR-RES ovarian) turn out when CC1(C)[C@@H]2C[C@H]1C(Cc1cccc(C[C@H]3c4cc(-c5ccccn5)ncc4[C@H]4C[C@@H]3C4(C)C)c1)c1cc(-c3ccccn3)ncc12 (stereo partly drawn) was run?
Answer: > 57.6 µM

Question: And the TGI (OVCAR-8 ovarian)?
Answer: > 44.2 µM

Question: What about the TGI (UACC-257 melanoma) of the same molecule?
Answer: > 42.4 µM

Question: And the TGI (SNB-75 CNS)?
Answer: > 100 µM

Question: And the GI50 (IGROV1 ovarian)?
Answer: 662 nM

Question: And the TGI (IGROV1 ovarian)?
Answer: > 100 µM

Question: What about the TGI (HCT-15 colon) of the same molecule?
Answer: > 53 µM

Question: And the TGI (LOX IMVI melanoma)?
Answer: 4.15 µM

Question: And the TGI (PC-3 prostate)?
Answer: > 47.2 µM

Question: What about the TGI (SF-539 CNS) of the same molecule?
Answer: > 28.4 µM

Question: For CCOC(=O)C(=Cn1c(=S)[nH]c2ccc([N+](=O)[O-])cc21)C(=O)OCC, which TGI (NCI/ADR-RES ovarian) is on record?
Answer: > 100 µM

Question: And the TGI (OVCAR-8 ovarian)?
Answer: > 100 µM

Question: And the TGI (UACC-257 melanoma)?
Answer: > 100 µM

Question: What about the TGI (SNB-75 CNS) of the same molecule?
Answer: > 100 µM

Question: What about the TGI (IGROV1 ovarian) of the same molecule?
Answer: > 100 µM

Question: And the TGI (LOX IMVI melanoma)?
Answer: > 100 µM

Question: What about the TGI (PC-3 prostate) of the same molecule?
Answer: > 100 µM

Question: And the TGI (SF-539 CNS)?
Answer: > 100 µM

Question: Which results are given for CCCCCCCCC/C=C1\CC(CO)(COC(=O)c2ccccc2)OC1=O (stereo not drawn)?
Answer: TGI (NCI/ADR-RES ovarian): 51.9 µM; TGI (UACC-257 melanoma): 79.9 µM; TGI (SNB-75 CNS): 38.3 µM; TGI (IGROV1 ovarian): 70.4 µM; TGI (HCT-15 colon): 35.5 µM; TGI (PC-3 prostate): 34.7 µM

Question: Which results are given for C[C@H](CCC1=NCCN1)[C@H]1CC[C@H]2[C@@H]3CC[C@@H]4C[C@H](O)CC[C@]4(C)[C@H]3C[C@H](O)[C@]12C?
Answer: TGI (NCI/ADR-RES ovarian): > 100 µM; TGI (OVCAR-8 ovarian): 28.8 µM; TGI (UACC-257 melanoma): 28.7 µM; TGI (SNB-75 CNS): 13.5 µM; TGI (IGROV1 ovarian): 21.9 µM; TGI (HCT-15 colon): > 100 µM; TGI (LOX IMVI melanoma): 29.3 µM; TGI (PC-3 prostate): 20.7 µM; TGI (SF-539 CNS): 29.5 µM

Question: What does the source list for CCOC(=O)C(C)c1nc2cc(N3CCN(C)CC3)c(F)cc2[nH]c1=O (stereo not drawn)?
Answer: TGI (NCI/ADR-RES ovarian): > 100 µM; TGI (OVCAR-8 ovarian): > 100 µM; TGI (UACC-257 melanoma): > 100 µM; TGI (SNB-75 CNS): > 100 µM; TGI (IGROV1 ovarian): > 100 µM; TGI (HCT-15 colon): > 100 µM; TGI (PC-3 prostate): > 100 µM; TGI (SF-539 CNS): > 100 µM

Question: NC(=O)NCCCC(NC(=O)OCCCCCn1ccc(=O)[nH]c1=O)C(=O)O (stereo not drawn) was tested. Which TGI (NCI/ADR-RES ovarian) did it give?
Answer: > 100 µM

Question: And the TGI (OVCAR-8 ovarian)?
Answer: > 100 µM

Question: What about the TGI (UACC-257 melanoma) of the same molecule?
Answer: > 100 µM

Question: What about the TGI (SNB-75 CNS) of the same molecule?
Answer: > 100 µM

Question: And the TGI (IGROV1 ovarian)?
Answer: > 100 µM

Question: What about the TGI (HCT-15 colon) of the same molecule?
Answer: > 100 µM

Question: And the TGI (LOX IMVI melanoma)?
Answer: > 100 µM

Question: And the TGI (PC-3 prostate)?
Answer: > 100 µM

Question: And the TGI (SF-539 CNS)?
Answer: > 100 µM

Question: How did the TGI (NCI/ADR-RES ovarian) turn out when O=C(c1ccccc1)N1C(=S)N(c2ccc([N+](=O)[O-])cc2)C(=Nc2ccccc2)C1=Nc1ccccc1 was run?
Answer: > 100 µM

Question: And the TGI (OVCAR-8 ovarian)?
Answer: > 100 µM

Question: And the TGI (UACC-257 melanoma)?
Answer: > 100 µM

Question: And the TGI (SNB-75 CNS)?
Answer: > 100 µM

Question: What about the TGI (IGROV1 ovarian) of the same molecule?
Answer: > 100 µM

Question: What about the TGI (HCT-15 colon) of the same molecule?
Answer: > 100 µM

Question: What about the TGI (PC-3 prostate) of the same molecule?
Answer: > 100 µM

Question: And the TGI (SF-539 CNS)?
Answer: > 100 µM

Question: With COc1ccc(C2(C3c4cc(OC)c(OC)cc4CCN3C)SCCCS2)cc1O (stereo not drawn) as the molecule, how does the TGI (NCI/ADR-RES ovarian) read?
Answer: > 100 µM

Question: What about the TGI (OVCAR-8 ovarian) of the same molecule?
Answer: > 100 µM

Question: What about the TGI (UACC-257 melanoma) of the same molecule?
Answer: > 100 µM

Question: And the TGI (IGROV1 ovarian)?
Answer: > 100 µM

Question: And the TGI (HCT-15 colon)?
Answer: > 100 µM

Question: And the TGI (LOX IMVI melanoma)?
Answer: > 100 µM

Question: What about the TGI (PC-3 prostate) of the same molecule?
Answer: > 100 µM

Question: And the TGI (SF-539 CNS)?
Answer: > 100 µM

Question: What does the source list for O=C(OCc1ccccc1)N1c2cc([N+](=O)[O-])ccc2C(=O)N2CCC[C@H]2C1O (stereo partly drawn)?
Answer: TGI (NCI/ADR-RES ovarian): > 100 µM; TGI (OVCAR-8 ovarian): > 100 µM; TGI (UACC-257 melanoma): > 100 µM; TGI (SNB-75 CNS): > 100 µM; TGI (IGROV1 ovarian): > 100 µM; TGI (HCT-15 colon): > 100 µM; TGI (LOX IMVI melanoma): > 100 µM; TGI (PC-3 prostate): > 100 µM; TGI (SF-539 CNS): > 100 µM

Question: With CC(C)CCC[C@@H](C)[C@H]1CCC2C3=CCC4C(=O)C=CC(=O)C4C3CC[C@@]21C (stereo partly drawn) as the molecule, how does the GI50 (OVCAR-8 ovarian) read?
Answer: 72.6 nM

Question: And the GI50 (UACC-257 melanoma)?
Answer: 372 nM

Question: What about the GI50 (IGROV1 ovarian) of the same molecule?
Answer: 260 nM

Question: And the TGI (IGROV1 ovarian)?
Answer: 0.719 µM

Question: And the GI50 (HCT-15 colon)?
Answer: 235 nM

Question: And the TGI (HCT-15 colon)?
Answer: > 100 µM

Question: What about the GI50 (LOX IMVI melanoma) of the same molecule?
Answer: 227 nM

Question: And the TGI (LOX IMVI melanoma)?
Answer: 1.17 µM

Question: And the GI50 (PC-3 prostate)?
Answer: 101 nM

Question: OCC(O)C(O)C(O)C(/C=N\Nc1ncnc2ccc(Br)cc12)=N/Nc1ncnc2ccc(Br)cc12 (stereo not drawn) was tested. Which TGI (OVCAR-8 ovarian) did it give?
Answer: > 100 µM

Question: And the TGI (UACC-257 melanoma)?
Answer: > 100 µM

Question: And the TGI (SNB-75 CNS)?
Answer: > 100 µM

Question: And the TGI (IGROV1 ovarian)?
Answer: > 100 µM

Question: And the TGI (LOX IMVI melanoma)?
Answer: > 100 µM

Question: What about the TGI (PC-3 prostate) of the same molecule?
Answer: > 100 µM

Question: And the TGI (SF-539 CNS)?
Answer: > 100 µM
